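In this assay, cells in 96-well plates receive the compound at five concentrations for 48 hours. Endpoints are linearly interpolated between the surrounding concentrations. Abbreviation: GI50, concentration required for 50% inhibition of growth.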 Activity calls are given as the source filed them. Rule as the data show it: active = GI50 up to about 1.1 µM and inactive = higher.
Tests used:
Test in all cases: growth of human tumour cells (NCI), 48 h
OVCAR-4 = test system: OVCAR-4
CCRF-CEM = test system: CCRF-CEM
SR = test system: SR
NCI-H522 = test system: NCI-H522
MOLT-4 = test system: MOLT-4
KM12 = test system: KM12
ACHN = test system: ACHN
786-0 = test system: 786-0
NCI-H226 = test system: NCI-H226
TK-10 = test system: TK-10
SNB-75 = test system: SNB-75
M14 = test system: M14
HCT-15 = test system: HCT-15
PC-3 = test system: PC-3
A549 = test system: A549
HL-60 = test system: HL-60
NCI-H23 = test system: NCI-H23
K562 = test system: K562
COLO 205 = test system: COLO 205
EKVX = test system: EKVX
UO-31 = test system: UO-31
MDA-MB-435 = test system: MDA-MB-435
SF-295 = test system: SF-295
UACC-257 = test system: UACC-257
OVCAR-8 = test system: OVCAR-8
UACC-62 = test system: UACC-62
RXF 393 = test system: RXF 393
MCF7 = test system: MCF7
A498 = test system: A498
LOX IMVI = test system: LOX IMVI
BT-549 = test system: BT-549
IGROV-1 = test system: IGROV-1
SNB-19 = test system: SNB-19
SW-620 = test system: SW-620
T47D = test system: T47D
MDA-N = test system: MDA-N
HCT-116 = test system: HCT-116
DU-145 = test system: DU-145
U-251 = test system: U-251
NCI/ADR-RES = test system: NCI/ADR-RES
SK-MEL-28 = test system: SK-MEL-28
SF-268 = test system: SF-268
Malme-3M = test system: Malme-3M
HOP-92 = test system: HOP-92
OVCAR-5 = test system: OVCAR-5
OVCAR-3 = test system: OVCAR-3
SF-539 = test system: SF-539
SN12C = test system: SN12C
CAKI-1 = test system: CAKI-1
Hs-578T = test system: Hs-578T
SK-OV-3 = test system: SK-OV-3
MDA-MB-231 = test system: MDA-MB-231
NCI-H460 = test system: NCI-H460
SK-MEL-2 = test system: SK-MEL-2
HT-29 = test system: HT-29
HOP-62 = test system: HOP-62
SK-MEL-5 = test system: SK-MEL-5
HCC 2998 = test system: HCC 2998
RPMI-8226 = test system: RPMI-8226

With `NC1C2C(CC(=O)O)OCC=C3CN4CCC1(C(=O)C(=O)O)C4CC32` (stereo unspecified) the GI50 (OVCAR-4) was > 100 µM (inactive), the GI50 (CCRF-CEM) was > 100 µM (inactive) and the GI50 (SR) was > 100 µM (inactive). For the same compound, the GI50 (NCI-H522) was > 100 µM (inactive), the GI50 (MOLT-4) was > 100 µM (inactive) and the GI50 (KM12) was > 100 µM (inactive). The GI50 (ACHN) was > 100 µM (inactive), the GI50 (786-0) was > 100 µM (inactive) and the GI50 (NCI-H226) was > 100 µM (inactive). The GI50 (TK-10) was > 100 µM (inactive), the GI50 (SNB-75) was > 100 µM (inactive) and the GI50 (M14) was > 100 µM (inactive). The GI50 (HCT-15) was greater than 100 µM, the GI50 (PC-3) was > 100 µM (inactive) and the GI50 (A549) was > 100 µM (inactive). The GI50 (HL-60) was > 100 µM (inactive), the GI50 (NCI-H23) was > 100 µM (inactive) and the GI50 (K562) was > 100 µM (inactive). The GI50 (COLO 205) was > 100 µM (inactive), the GI50 (EKVX) was > 100 µM (inactive) and the GI50 (UO-31) was > 100 µM (inactive). The GI50 (MDA-MB-435) was > 100 µM (inactive), the GI50 (SF-295) was > 100 µM (inactive) and the GI50 (UACC-257) was > 100 µM (inactive). The GI50 (OVCAR-8) was > 100 µM (inactive), the GI50 (UACC-62) was > 100 µM (inactive) and the GI50 (RXF 393) was > 100 µM (inactive). The GI50 (MCF7) was > 100 µM (inactive), the GI50 (A498) was > 100 µM (inactive) and the GI50 (LOX IMVI) was > 100 µM (inactive). The GI50 (BT-549) was > 100 µM (inactive), the GI50 (IGROV-1) was > 100 µM (inactive) and the GI50 (SNB-19) was > 100 µM (inactive). The GI50 (SW-620) was > 100 µM (inactive), the GI50 (T47D) was > 100 µM (inactive) and the GI50 (MDA-N) was > 100 µM (inactive). The GI50 (HCT-116) was > 100 µM (inactive), the GI50 (DU-145) was > 100 µM (inactive) and the GI50 (U-251) was > 100 µM (inactive). For the same compound, the GI50 (NCI/ADR-RES) was > 100 µM (inactive), the GI50 (SK-MEL-28) was > 100 µM (inactive) and the GI50 (SF-268) was > 100 µM (inactive). For the same compound, the GI50 (Malme-3M) was > 100 µM (inactive), the GI50 (HOP-92) was > 100 µM (inactive) and the GI50 (OVCAR-5) was > 100 µM (inactive). For the same compound, the GI50 (OVCAR-3) was > 100 µM (inactive), the GI50 (SF-539) was > 100 µM (inactive) and the GI50 (SN12C) was > 100 µM (inactive). For the same compound, the GI50 (CAKI-1) was > 100 µM (inactive), the GI50 (Hs-578T) was > 100 µM (inactive) and the GI50 (SK-OV-3) was > 100 µM (inactive). The GI50 (MDA-MB-231) was > 100 µM (inactive), the GI50 (NCI-H460) was > 100 µM (inactive) and the GI50 (SK-MEL-2) was > 100 µM (inactive). For the same compound, the GI50 (HT-29) was > 100 µM (inactive), the GI50 (HOP-62) was > 100 µM (inactive) and the GI50 (SK-MEL-5) was > 100 µM (inactive).
For `CCCCCCCCCCCCCCCCCCNc1ccn(C2OC(COP(=O)(O)OCC3OC(n4cc(F)c(=O)[nH]c4=O)CC3O)C(O)C2O)c(=O)n1` (stereo unspecified), the GI50 (HCC 2998) was < 0.01 µM (active), the GI50 (OVCAR-4) was 60 µM (inactive) and the GI50 (CCRF-CEM) was 1.24 µM (inactive). For the same compound, the GI50 (SR) was 0.337 µM (active), the GI50 (NCI-H522) was 4.83 µM (inactive) and the GI50 (MOLT-4) was 1.63 µM (inactive). For the same compound, the GI50 (KM12) was 15.5 µM (inactive), the GI50 (ACHN) was 0.778 µM (active) and the GI50 (786-0) was 2.19 µM (inactive). The GI50 (TK-10) was 14.7 µM (inactive), the GI50 (SNB-75) was 1.18 µM (inactive) and the GI50 (M14) was 3.31 µM (inactive). For the same compound, the GI50 (HCT-15) was 16.3 µM, the GI50 (PC-3) was 1.53 µM (inactive) and the GI50 (A549) was 0.251 µM (active). The GI50 (HL-60) was 0.678 µM (active), the GI50 (NCI-H23) was 1.48 µM (inactive) and the GI50 (K562) was 12.1 µM (inactive). For the same compound, the GI50 (COLO 205) was 16.1 µM (inactive), the GI50 (EKVX) was 14.5 µM (inactive) and the GI50 (UO-31) was 0.498 µM (active). The GI50 (MDA-MB-435) was 37.9 µM (inactive), the GI50 (SF-295) was 0.47 µM (active) and the GI50 (UACC-257) was > 89.7 µM (inactive). For the same compound, the GI50 (OVCAR-8) was 1.36 µM (inactive), the GI50 (UACC-62) was 1.19 µM (inactive) and the GI50 (RXF 393) was 12.6 µM (inactive). For the same compound, the GI50 (MCF7) was 0.274 µM (active), the GI50 (A498) was 33.3 µM (inactive) and the GI50 (LOX IMVI) was 1.36 µM (inactive). The GI50 (BT-549) was 11.7 µM (inactive), the GI50 (IGROV-1) was 10.1 µM (inactive) and the GI50 (SNB-19) was 20.2 µM (inactive). For the same compound, the GI50 (SW-620) was 42.8 µM (inactive), the GI50 (T47D) was 27.9 µM (inactive) and the GI50 (MDA-N) was 46.6 µM (inactive). The GI50 (HCT-116) was 2.98 µM (inactive), the GI50 (DU-145) was 2.43 µM (inactive) and the GI50 (U-251) was 6.28 µM (inactive). For the same compound, the GI50 (NCI/ADR-RES) was 1.33 µM (inactive), the GI50 (SK-MEL-28) was > 100 µM (inactive) and the GI50 (SF-268) was 0.0914 µM (active). For the same compound, the GI50 (Malme-3M) was 0.634 µM (active), the GI50 (RPMI-8226) was 1.44 µM (inactive) and the GI50 (HOP-92) was > 100 µM (inactive). For the same compound, the GI50 (OVCAR-5) was 15 µM (inactive), the GI50 (OVCAR-3) was 7.67 µM (inactive) and the GI50 (SF-539) was 0.207 µM (active). The GI50 (SN12C) was 3.29 µM (inactive), the GI50 (CAKI-1) was 1.16 µM (inactive) and the GI50 (Hs-578T) was 17.8 µM (inactive). The GI50 (SK-OV-3) was 27.5 µM (inactive), the GI50 (MDA-MB-231) was > 100 µM (inactive) and the GI50 (NCI-H460) was 3.53 µM (inactive). For the same compound, the GI50 (SK-MEL-2) was 51.9 µM (inactive), the GI50 (HT-29) was 5.38 µM (inactive) and the GI50 (HOP-62) was 0.356 µM (active). The GI50 (SK-MEL-5) was 23.1 µM (inactive).
In the case of `O=C(OCc1ccccc1)N1CCNCCNCC1`, the GI50 (HCC 2998) is reported as > 100 µM (inactive), the GI50 (OVCAR-4) is reported as > 100 µM (inactive) and the GI50 (CCRF-CEM) is reported as > 100 µM (inactive). For the same compound, the GI50 (SR) was > 100 µM (inactive), the GI50 (NCI-H522) was > 100 µM (inactive) and the GI50 (MOLT-4) was > 100 µM (inactive). The GI50 (KM12) was > 100 µM (inactive), the GI50 (ACHN) was > 100 µM (inactive) and the GI50 (786-0) was > 100 µM (inactive). The GI50 (NCI-H226) was > 100 µM (inactive), the GI50 (TK-10) was > 100 µM (inactive) and the GI50 (M14) was > 100 µM (inactive). For the same compound, the GI50 (HCT-15) was greater than 100 µM, the GI50 (PC-3) was > 100 µM (inactive) and the GI50 (A549) was > 100 µM (inactive). For the same compound, the GI50 (HL-60) was > 100 µM (inactive), the GI50 (NCI-H23) was > 100 µM (inactive) and the GI50 (K562) was > 100 µM (inactive). For the same compound, the GI50 (COLO 205) was > 100 µM (inactive), the GI50 (EKVX) was > 100 µM (inactive) and the GI50 (UO-31) was > 100 µM (inactive). The GI50 (MDA-MB-435) was > 100 µM (inactive), the GI50 (SF-295) was > 100 µM (inactive) and the GI50 (UACC-257) was > 100 µM (inactive). For the same compound, the GI50 (OVCAR-8) was > 100 µM (inactive), the GI50 (UACC-62) was > 100 µM (inactive) and the GI50 (RXF 393) was > 100 µM (inactive). The GI50 (MCF7) was > 100 µM (inactive), the GI50 (A498) was > 100 µM (inactive) and the GI50 (LOX IMVI) was > 100 µM (inactive). For the same compound, the GI50 (BT-549) was > 100 µM (inactive), the GI50 (IGROV-1) was > 100 µM (inactive) and the GI50 (SNB-19) was > 100 µM (inactive). The GI50 (SW-620) was > 100 µM (inactive), the GI50 (T47D) was > 100 µM (inactive) and the GI50 (MDA-N) was > 100 µM (inactive). The GI50 (HCT-116) was > 100 µM (inactive), the GI50 (DU-145) was > 100 µM (inactive) and the GI50 (U-251) was > 100 µM (inactive). For the same compound, the GI50 (NCI/ADR-RES) was > 100 µM (inactive), the GI50 (SK-MEL-28) was > 100 µM (inactive) and the GI50 (SF-268) was > 100 µM (inactive). The GI50 (RPMI-8226) was > 100 µM (inactive), the GI50 (HOP-92) was > 100 µM (inactive) and the GI50 (OVCAR-5) was > 100 µM (inactive). The GI50 (OVCAR-3) was > 100 µM (inactive), the GI50 (SF-539) was > 100 µM (inactive) and the GI50 (SN12C) was > 100 µM (inactive). The GI50 (CAKI-1) was > 100 µM (inactive), the GI50 (Hs-578T) was > 100 µM (inactive) and the GI50 (MDA-MB-231) was > 100 µM (inactive). The GI50 (NCI-H460) was > 100 µM (inactive), the GI50 (SK-MEL-2) was > 100 µM (inactive) and the GI50 (HT-29) was > 100 µM (inactive). The GI50 (HOP-62) was > 100 µM (inactive) and the GI50 (SK-MEL-5) was > 100 µM (inactive).
